The text below walks through data of ChEMBL document CHEMBL1201862, “PubChem BioAssay data set” (2004).

For experiment [1], the target named is T1, Peroxisome proliferator-activated receptor gamma (Homo sapiens, UniProt P37231). Description: PPARg ligand-binding domain binders, dose response, PPARg partial agonist project, biochemical, TR-FRET, LanthaScreen (AID 504446).
For experiment [2], the target named is T1, Peroxisome proliferator-activated receptor gamma. Description: PPARg partial agonists, dose response, cell-based, luminescence, assay provider (AID 504447). The experiment is classed as functional.
Experiment [3] concerns the target Peroxisome proliferator-activated receptor alpha (Homo sapiens, UniProt Q07869). Description: Late stage assay provider counterscreen for partial agonists of the peroxisome proliferator-activated receptor gamma (PPARg): Luminescence-based cell-based dose response assay for partial agonists of the peroxisome proliferator-activated receptor alpha (PPARA). [Related pubchem assays (depositor defined):AID1051, AID1300, AID1319, AID1679, AID1808, AID504446, AID504447, AID504452, AID504453, AID631]. The format is functional. On the technique in general: The purpose of a counterscreen is to sort out artefacts and off-target activity.

Experiment [4] concerns the target T2, Runt-related transcription factor 1/Core-binding factor subunit beta (Homo sapiens, UniProt Q01196+Q13951). Description: Confirmation of compounds inhibiting the binding between the RUNX1 Runt domain and CBFb-SMMHC via a fluorescence resonance energy transfer (FRET) assay. [Related pubchem assays (depositor defined):AID1434, AID1438, AID1496, AID1550, AID1645]. The experiment is classed as protein assay.

Experiment [5] has as its target T2, Runt-related transcription factor 1/Core-binding factor subunit beta. Description: inhibitors of RUNX1 Runt–CBFb-SMMHC binding, primary screen, biochemical, FRET, Cerulean-Runt, Venus-CBFb-SMMHC, uHTS (AID 1434).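 Further: partner is the CBFb-SMMHC leukemia fusion protein rather than wild-type CBFb.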 The experiment is classed as protein assay.
Experiment [6] has the same target. The experiment is described as follows: inhibitors of RUNX1 Runt–CBFb-SMMHC binding, biochemical, TR-FRET (AID 1438). The experiment is classed as protein assay. In general terms: Time-resolved FRET reads energy transfer from a long-lived donor to a nearby acceptor.
The target of another experiment is T3, Caspase-3 (Homo sapiens, UniProt P42574).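 Further: Dose-response selectivity test against caspase-3 for candidate inhibitors of sentrin-specific proteases (SENPs).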
T3 sequence (P42574 whole entry): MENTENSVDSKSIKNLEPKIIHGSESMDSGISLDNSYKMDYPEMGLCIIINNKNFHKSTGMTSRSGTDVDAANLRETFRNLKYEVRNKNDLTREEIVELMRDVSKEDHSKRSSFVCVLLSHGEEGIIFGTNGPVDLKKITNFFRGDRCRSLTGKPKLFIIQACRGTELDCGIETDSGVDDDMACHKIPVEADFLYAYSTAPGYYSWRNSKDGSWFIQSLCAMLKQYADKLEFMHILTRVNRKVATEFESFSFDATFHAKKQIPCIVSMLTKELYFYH
The format is functional.

The target of experiment [7] is T4, Sentrin-specific protease 7 (Homo sapiens, UniProt Q9BQF6).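 Further: Luminescence-based dose-response confirmation of ultra-high-throughput screening hits, measuring inhibition of SENP7.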
T4 sequence (Q9BQF6 whole entry): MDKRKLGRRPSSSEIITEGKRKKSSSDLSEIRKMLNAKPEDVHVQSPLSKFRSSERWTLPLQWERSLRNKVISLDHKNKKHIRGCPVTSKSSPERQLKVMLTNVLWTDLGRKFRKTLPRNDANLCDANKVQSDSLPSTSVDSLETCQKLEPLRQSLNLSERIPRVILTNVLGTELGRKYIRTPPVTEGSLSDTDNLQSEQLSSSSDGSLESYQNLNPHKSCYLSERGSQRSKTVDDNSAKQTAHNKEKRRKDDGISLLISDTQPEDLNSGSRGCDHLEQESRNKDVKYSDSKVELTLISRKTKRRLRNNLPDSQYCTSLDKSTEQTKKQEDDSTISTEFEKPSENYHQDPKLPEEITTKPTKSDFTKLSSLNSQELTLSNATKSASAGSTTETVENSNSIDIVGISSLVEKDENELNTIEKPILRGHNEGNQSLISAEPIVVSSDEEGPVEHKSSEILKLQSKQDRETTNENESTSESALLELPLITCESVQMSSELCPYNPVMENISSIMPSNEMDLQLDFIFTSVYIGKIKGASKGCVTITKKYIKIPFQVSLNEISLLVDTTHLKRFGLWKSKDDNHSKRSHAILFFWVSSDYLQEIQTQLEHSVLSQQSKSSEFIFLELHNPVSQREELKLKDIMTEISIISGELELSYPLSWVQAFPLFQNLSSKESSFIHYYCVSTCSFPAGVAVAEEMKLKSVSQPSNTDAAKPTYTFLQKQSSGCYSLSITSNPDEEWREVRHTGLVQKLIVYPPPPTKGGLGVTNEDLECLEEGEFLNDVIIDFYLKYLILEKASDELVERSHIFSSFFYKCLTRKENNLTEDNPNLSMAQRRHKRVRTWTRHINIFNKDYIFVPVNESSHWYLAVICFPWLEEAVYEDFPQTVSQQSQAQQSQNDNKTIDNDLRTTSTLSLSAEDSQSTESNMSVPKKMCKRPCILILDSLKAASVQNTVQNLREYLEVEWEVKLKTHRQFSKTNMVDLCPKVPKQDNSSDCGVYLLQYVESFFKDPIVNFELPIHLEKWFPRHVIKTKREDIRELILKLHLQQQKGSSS
The format is functional.

Experiment [8] concerns the target T5, Sentrin-specific protease 6 (Homo sapiens, UniProt Q9GZR1).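 Further: Luminescence-based dose-response confirmatory assay of SENP6 inhibition, following up an ultra-high-throughput screen.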
T5 sequence (Q9GZR1 whole entry): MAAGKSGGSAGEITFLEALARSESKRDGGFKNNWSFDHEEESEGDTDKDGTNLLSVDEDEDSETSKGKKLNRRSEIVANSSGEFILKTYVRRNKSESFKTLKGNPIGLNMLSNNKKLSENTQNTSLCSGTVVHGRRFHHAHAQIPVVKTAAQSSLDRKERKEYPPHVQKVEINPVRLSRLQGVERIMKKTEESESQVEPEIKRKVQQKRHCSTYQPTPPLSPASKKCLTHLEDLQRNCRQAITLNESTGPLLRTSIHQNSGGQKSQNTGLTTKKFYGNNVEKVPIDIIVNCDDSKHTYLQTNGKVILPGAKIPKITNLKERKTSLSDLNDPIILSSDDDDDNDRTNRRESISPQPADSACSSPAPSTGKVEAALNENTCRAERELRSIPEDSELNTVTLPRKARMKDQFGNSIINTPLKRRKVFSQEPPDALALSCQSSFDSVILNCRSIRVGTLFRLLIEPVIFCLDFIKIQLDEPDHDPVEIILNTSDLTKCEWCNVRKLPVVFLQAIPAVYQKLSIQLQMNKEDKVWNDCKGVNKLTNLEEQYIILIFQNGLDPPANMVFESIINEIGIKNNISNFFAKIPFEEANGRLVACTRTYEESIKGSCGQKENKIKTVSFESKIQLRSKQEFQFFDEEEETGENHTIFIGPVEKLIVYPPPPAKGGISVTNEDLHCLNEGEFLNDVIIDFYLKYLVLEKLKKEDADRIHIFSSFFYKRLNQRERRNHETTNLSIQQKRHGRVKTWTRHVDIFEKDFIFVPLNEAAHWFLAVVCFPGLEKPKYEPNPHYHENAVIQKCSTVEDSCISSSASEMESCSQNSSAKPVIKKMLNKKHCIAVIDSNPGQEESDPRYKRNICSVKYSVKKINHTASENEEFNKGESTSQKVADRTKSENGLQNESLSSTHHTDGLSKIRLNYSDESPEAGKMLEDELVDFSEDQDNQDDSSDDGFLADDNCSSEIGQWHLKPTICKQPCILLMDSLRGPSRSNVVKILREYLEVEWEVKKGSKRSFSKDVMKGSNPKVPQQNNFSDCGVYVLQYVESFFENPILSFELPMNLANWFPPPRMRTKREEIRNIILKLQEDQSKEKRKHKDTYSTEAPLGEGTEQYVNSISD
The experiment is classed as functional.

Experiment [9] concerns the target T6, Sentrin-specific protease 8 (Homo sapiens, UniProt Q96LD8).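 Further: luminescence read-out of SENP8 inhibition, dose-response confirmation following an ultra-high-throughput screen.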
T6 sequence (Q96LD8 whole entry): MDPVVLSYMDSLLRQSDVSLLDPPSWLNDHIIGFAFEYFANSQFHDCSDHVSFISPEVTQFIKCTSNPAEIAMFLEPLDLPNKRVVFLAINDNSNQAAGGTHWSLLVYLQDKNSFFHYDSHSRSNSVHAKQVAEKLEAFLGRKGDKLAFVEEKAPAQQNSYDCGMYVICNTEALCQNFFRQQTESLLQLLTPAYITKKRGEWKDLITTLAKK
The experiment is classed as functional.

For experiment [10], the target named is T7, Tyrosine-protein phosphatase non-receptor type 22 (Homo sapiens, UniProt Q9Y2R2).
T7 sequence (Q9Y2R2 whole entry): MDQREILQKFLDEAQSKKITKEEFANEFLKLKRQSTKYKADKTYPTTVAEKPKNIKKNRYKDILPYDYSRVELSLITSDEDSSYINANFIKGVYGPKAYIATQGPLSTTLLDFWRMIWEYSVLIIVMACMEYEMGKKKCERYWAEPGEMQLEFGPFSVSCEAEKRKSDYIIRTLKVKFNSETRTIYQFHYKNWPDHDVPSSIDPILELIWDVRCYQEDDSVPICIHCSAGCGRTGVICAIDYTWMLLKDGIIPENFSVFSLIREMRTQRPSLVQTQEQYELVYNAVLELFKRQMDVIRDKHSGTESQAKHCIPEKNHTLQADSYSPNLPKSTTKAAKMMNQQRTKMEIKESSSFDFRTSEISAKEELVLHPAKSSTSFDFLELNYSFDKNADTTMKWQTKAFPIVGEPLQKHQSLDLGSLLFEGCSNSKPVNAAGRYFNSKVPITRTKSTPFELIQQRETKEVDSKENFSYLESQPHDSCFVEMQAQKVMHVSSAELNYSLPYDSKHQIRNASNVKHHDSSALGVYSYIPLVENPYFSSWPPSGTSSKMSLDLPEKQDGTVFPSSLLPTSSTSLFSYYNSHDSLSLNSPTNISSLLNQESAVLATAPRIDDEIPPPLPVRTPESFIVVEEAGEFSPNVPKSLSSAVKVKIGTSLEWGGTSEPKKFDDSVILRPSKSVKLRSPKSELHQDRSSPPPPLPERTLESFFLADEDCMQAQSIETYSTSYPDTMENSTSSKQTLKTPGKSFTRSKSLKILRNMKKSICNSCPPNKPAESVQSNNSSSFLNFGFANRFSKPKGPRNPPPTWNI
The experiment is described as follows: SAR LYP1 Fluorescent Assay using pCAP substrate for In Vitro dose response studies - Set 2. [Related pubchem assays (depositor defined):AID1779, AID1784, AID2135, AID449727]. The format is functional.

The target of experiment [11] is T7, Tyrosine-protein phosphatase non-receptor type 22. Description: SAR LYP1 Fluorescent Assay using OMFP substrate for In Vitro dose response studies - Set 3. [Related pubchem assays (depositor defined):AID1779, AID1784, AID2140, AID2686]. The format is functional.
Experiment [12] concerns the target T8, Tyrosine-protein phosphatase non-receptor type 7 (Homo sapiens, UniProt P35236).
T8 sequence (P35236 whole entry): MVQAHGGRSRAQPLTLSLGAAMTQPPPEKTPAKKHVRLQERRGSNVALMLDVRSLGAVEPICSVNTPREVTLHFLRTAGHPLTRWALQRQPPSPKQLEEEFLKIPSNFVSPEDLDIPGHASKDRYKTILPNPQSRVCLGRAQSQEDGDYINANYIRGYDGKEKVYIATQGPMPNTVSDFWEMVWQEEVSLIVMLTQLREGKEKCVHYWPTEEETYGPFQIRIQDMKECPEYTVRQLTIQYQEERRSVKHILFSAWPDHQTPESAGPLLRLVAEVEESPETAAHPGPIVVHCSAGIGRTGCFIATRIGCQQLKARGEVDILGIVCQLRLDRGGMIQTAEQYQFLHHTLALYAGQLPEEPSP
The experiment is described as follows: HePTP (PTPN7) phosphatase inhibitor potency, SAR follow-up, biochemical, set 2 (AID 449736). The format is functional.

Experiment [13] deals with T7, Tyrosine-protein phosphatase non-receptor type 22. Description: LYP (PTPN22) phosphatase inhibitor potency, SAR follow-up, biochemical, pCAP fluorogenic substrate, fluorescence, set 3 (AID 449727). The experiment is classed as functional.
Experiment [14] has the same target. The experiment is described as follows: SAR LYP1 Fluorescent Assay using OMFP substrate for In Vitro dose response studies - Set 2. [Related pubchem assays (depositor defined):AID1779, AID1784, AID2140, AID449726, AID488869]. The experiment is classed as functional.

The source made the active and inactive calls. For most assays here, no stated cut-off is given here; in the data, actives have a measured IC50 and inactives only a lower limit.

T2 sequence (Q01196 whole entry, the tested form may be a part): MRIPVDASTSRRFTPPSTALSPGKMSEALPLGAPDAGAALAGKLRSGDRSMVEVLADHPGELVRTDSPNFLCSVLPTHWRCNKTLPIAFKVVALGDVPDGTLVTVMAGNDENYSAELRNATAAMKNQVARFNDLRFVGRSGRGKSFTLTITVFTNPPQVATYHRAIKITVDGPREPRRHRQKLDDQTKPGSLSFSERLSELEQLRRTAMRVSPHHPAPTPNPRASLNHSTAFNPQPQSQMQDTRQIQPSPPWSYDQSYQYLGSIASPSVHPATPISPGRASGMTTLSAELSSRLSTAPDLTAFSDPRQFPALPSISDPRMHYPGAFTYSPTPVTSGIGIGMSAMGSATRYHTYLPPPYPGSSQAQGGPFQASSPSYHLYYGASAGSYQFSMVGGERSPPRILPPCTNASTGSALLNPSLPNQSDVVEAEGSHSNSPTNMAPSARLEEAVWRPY
T2 sequence (Q13951 whole entry, the tested form may be a part): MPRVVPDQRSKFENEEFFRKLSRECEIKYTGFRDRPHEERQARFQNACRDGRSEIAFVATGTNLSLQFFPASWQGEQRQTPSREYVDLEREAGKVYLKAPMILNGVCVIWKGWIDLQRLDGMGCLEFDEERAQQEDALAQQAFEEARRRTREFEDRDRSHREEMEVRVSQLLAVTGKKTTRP
T1 sequence (P37231 whole entry, the tested form may be a part): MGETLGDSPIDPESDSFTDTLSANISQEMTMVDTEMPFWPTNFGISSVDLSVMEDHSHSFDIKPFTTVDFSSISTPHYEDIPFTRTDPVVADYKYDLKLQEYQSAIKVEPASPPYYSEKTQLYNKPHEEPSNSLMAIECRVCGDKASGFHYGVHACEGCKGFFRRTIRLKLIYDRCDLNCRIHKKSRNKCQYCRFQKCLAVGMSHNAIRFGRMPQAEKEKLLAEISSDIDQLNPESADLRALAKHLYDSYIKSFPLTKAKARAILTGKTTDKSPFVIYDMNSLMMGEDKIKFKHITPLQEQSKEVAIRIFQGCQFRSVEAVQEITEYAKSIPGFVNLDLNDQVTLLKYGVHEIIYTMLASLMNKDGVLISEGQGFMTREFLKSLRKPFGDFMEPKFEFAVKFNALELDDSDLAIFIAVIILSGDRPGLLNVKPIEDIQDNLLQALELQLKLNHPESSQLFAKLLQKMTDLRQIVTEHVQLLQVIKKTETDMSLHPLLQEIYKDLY
Sequence of Peroxisome proliferator-activated receptor alpha (Q07869 whole entry): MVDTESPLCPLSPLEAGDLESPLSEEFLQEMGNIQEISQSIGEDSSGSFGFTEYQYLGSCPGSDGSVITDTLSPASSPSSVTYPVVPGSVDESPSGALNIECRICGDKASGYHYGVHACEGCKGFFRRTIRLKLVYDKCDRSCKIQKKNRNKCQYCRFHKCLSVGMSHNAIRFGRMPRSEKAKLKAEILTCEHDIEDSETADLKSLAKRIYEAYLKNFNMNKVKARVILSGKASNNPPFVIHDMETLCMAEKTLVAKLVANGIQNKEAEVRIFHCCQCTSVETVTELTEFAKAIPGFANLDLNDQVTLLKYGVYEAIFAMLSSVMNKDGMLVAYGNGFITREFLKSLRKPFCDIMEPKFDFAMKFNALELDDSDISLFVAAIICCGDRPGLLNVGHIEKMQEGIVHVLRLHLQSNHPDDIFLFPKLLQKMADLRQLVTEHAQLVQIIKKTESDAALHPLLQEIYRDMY

As a reminder, the IC50 is the point on the concentration scale where inhibition reaches its midpoint. In general, EC50 refers to the concentration needed to bring the measured effect to its halfway point. `O=C(O)CCN1C(=O)/C(=C/c2ccc(F)cc2F)SC1=S`: the IC50 in experiment [1] is 2.5 µM (active). The EC50 was 1.5 µM (active) in experiment [2] and 0.057 µM (active) in experiment [3].
In the case of `O=S(=O)(Nc1ccc(-c2nc3cccnc3s2)cc1)c1ccc(Cl)s1`, the IC50 was 1.87 µM (active) in experiment [4]; 5.46 µM (active) in [5]; 24 µM (active) in [6]; 31.2 µM (active) at Caspase-3; 18.8 µM (active) in experiment [7]; 25 µM (active) in experiment [8]. Moreover, the IC50 in [9] is 29.1 µM (active).
For `NC1=NC(=O)/C(=C/c2ccc(OCC(=O)O)cc2)S1`, the IC50 in [10] is 55 µM (active); in experiment [11], > 100 µM (inactive); in experiment [12] it was > 100 µM (inactive); in experiment [13], 44.8 µM (active); in [14], > 100 µM (inactive).
